# Assay results reported in article PMC4777244, “Activation of transient receptor potential ankyrin 1 induces CGRP release from spinal cord synaptosomes” (Pharmacology Research & Perspectives, 2015).
# Several values for one entry are separate records, joined by “and”; a condition that tells them apart may be missing. Equal values may be shown once. Entries after “also recorded” stand apart in the source; their conditions may differ. Where a name gives a salt, the structure may show the parent alone. Read-outs that look alike come from different tables or passages of the source.
# What was measured:
# TRPA1 = target: T1, TRPA1 (Rattus norvegicus, UniProt Q6RI86); assay: cell-based
# T1 construct: TRPA1 natively expressed on the central terminals of dorsal root ganglion neurons; from tissue; host or cells: lumbar spinal cord homogenate (synaptosomes) of adult male Sprague Dawley rats
# T1 sequence (Q6RI86 whole entry): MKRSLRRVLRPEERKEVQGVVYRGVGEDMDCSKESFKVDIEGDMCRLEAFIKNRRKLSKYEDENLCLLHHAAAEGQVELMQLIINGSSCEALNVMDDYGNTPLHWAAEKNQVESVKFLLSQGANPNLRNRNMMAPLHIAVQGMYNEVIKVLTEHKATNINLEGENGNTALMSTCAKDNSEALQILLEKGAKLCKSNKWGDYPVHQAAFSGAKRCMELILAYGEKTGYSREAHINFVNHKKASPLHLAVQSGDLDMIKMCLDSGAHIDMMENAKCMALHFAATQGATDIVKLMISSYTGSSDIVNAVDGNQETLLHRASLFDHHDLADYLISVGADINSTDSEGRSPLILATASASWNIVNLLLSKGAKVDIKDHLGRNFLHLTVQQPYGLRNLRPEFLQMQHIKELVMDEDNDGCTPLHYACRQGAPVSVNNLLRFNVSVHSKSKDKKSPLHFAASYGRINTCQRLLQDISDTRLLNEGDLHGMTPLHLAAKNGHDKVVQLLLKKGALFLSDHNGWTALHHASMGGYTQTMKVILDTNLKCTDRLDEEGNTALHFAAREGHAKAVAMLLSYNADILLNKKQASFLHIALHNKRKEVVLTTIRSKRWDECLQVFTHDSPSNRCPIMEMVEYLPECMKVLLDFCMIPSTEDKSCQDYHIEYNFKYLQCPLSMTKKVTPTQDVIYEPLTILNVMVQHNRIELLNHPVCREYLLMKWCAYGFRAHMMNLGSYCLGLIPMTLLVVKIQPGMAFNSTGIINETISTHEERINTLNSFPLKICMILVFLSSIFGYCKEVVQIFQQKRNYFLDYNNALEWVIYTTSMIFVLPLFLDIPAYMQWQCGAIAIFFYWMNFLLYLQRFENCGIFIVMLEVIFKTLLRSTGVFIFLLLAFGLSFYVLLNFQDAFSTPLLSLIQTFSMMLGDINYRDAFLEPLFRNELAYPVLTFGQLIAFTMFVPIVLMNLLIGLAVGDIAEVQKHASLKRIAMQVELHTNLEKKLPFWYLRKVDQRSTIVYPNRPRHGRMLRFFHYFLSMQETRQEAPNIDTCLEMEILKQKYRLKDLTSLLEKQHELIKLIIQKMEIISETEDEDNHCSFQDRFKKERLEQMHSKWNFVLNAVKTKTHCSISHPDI
# [1] = tested on: recombinantly‐expressed TRPA1 channels; details: cited from earlier work
# spinal cord synaptosomes = assay: KCl (depolarization)-evoked CGRP release from rat spinal cord homogenate, ELISA; assay type: cell-based; details: for CGRP release over basal release: n = 3
# [2] = tested on: voltage‐gated calcium channels (VGCCs); assay type: cell-based, rat
# [3] = tested on: voltage‐gated calcium channels (VGCCs); assay type: cell-based, rat; remark: listed apart in the source
# T‐type VGCCs = tested on: T‐type VGCCs; parameters: method as in Martin et al. 2000; details: ref Martin et al. 2000; cited from earlier work
# TRPM3 = tested on: TRPM3; parameters: method as in Wagner et al. 2008; details: ref Wagner et al. 2008; read-out: EC50 for activation of TRPM3; cited from earlier work
molecule,measurement,setting,value
"CCCCCC(O)/C=C/C=O (stereo not shown) [4‐HNE, 4‐hydroxynonenal]",EC50,TRPA1; read-out: EC50 of CGRP release,17.4 ± 0.68 µM
"CCCCCC(=O)C=CC=O [4‐ONE, 4‐oxo‐2‐nonenal]",EC50,"TRPA1; rat spinal cord homogenate, ELISA, mean ± SEM, read-out: EC50 of CGRP release",63.8 µM and ~64 µM
same,EC50,"[1]; ref Taylor‐Clark et al. 2008, read-out: previously reported EC50 value",~2 µM
"C=CCN=C=S [AITC, allyl‐isothiocyanate]",AITC-induced CGRP release,TRPA1,42 ± 11 % of 40 mmol/L KCl‐evoked release
CC(=C\c1ccc(Cl)cc1)/C(C)=N/O [AP18],AITC-induced CGRP release in the presence of AP18,"TRPA1; 50 μmol/L AP18, 100 μmol/L AITC, dorsal homogenate",8 ± 5 % of 40 mmol/L KCl‐evoked release
same,cinnamaldehyde-evoked CGRP release in the presence of AP18,"TRPA1; 50 μmol/L AP18, 100 μmol/L cinnamaldehyde, dorsal homogenate",−1 ± 3 % of 40 mmol/L KCl‐evoked release
same,effect on CGRP release induced by 40 mmol/L and 60 mmol/L KCl,spinal cord synaptosomes; 50 μmol/L AP18,no effect
[Cl-].[K+] [KCl],"CGRP release evoked by 40 mmol/L KCl, absence of morphine","spinal cord synaptosomes; 40 mmol/L KCl, dorsal homogenate, morphine experiment, n = 4",77 ± 7 % over basal release
same,CGRP release over basal release,"spinal cord synaptosomes; 40 mmol/L KCl, dorsal spinal cord homogenate, dorsal/ventral experiment",67 ± 9 % over basal release
same,CGRP release over basal release,"spinal cord synaptosomes; 40 mmol/L KCl, ventral spinal cord homogenate",6 ± 4 % over basal release
same,"CGRP release evoked by 60 mmol/L KCl, absence of morphine","spinal cord synaptosomes; 60 mmol/L KCl, dorsal homogenate, morphine experiment, n = 4",131 ± 17 % over basal release
O=C/C=C/c1ccccc1 [cinnamaldehyde],cinnamaldehyde-evoked CGRP release,"TRPA1; 100 μmol/L cinnamaldehyde, dorsal homogenate, absence of AP18",39 ± 8 % of 40 mmol/L KCl‐evoked release
same,CGRP release over basal release,"TRPA1; 100 μmol/L cinnamaldehyde, dorsal spinal cord homogenate, n = 3",14 ± 5 % over basal release
same,CGRP release over basal release,"TRPA1; 100 μmol/L cinnamaldehyde, ventral spinal cord homogenate, n = 3",0 ± 1 % over basal release
same,response to 1000 μmol/L cinnamaldehyde in Ca2+ free solutions as % of the response in Ca2+ containing solutions,"TRPA1; 1000 μmol/L, Ca2+ free, 1 mmol/L EGTA, mean ± SEM, n = 3",18 ± 6%
same,EC50,"TRPA1; EC50 of CGRP release, rat spinal cord homogenate, ELISA, mean ± SEM",54.8 ± 5.84 µM
COCC(=O)O[C@]1(CCN(C)CCCc2nc3ccccc3[nH]2)CCc2cc(F)ccc2[C@@H]1C(C)C [mibefradil dihydrochloride],decrease of high potassium-induced CGRP release,"[2]; 40 mmol/L KCl, mibefradil dihydrochloride 10 μmol/L, cocktail",~ 50%
same,effect on 40 mmol/L KCl-induced CGRP release,"[2]; nifedipine 5 μmol/L, ω‐conotoxin MVIIC 200 nmol/L, mibefradil dihydrochloride 10 μmol/L, cocktail",significantly decreased
same,depolarization-induced CGRP release in the presence of inhibitor,"[2]; ω‐conotoxin MVIIC 1 μmol/L, mibefradil dihydrochloride 10 μmol/L, cocktail (5 μmol/L nifedipine, 1 μmol/L ω‐conotoxin MVIIC, 10 μmol/L mibefradil)",48 ± 6 % of control 40 mmol/L KCl‐evoked release
same,effect on 100 μmol/L cinnamaldehyde-induced CGRP release,"[3]; nifedipine 5 μmol/L, mibefradil dihydrochloride 10 μmol/L, ω‐conotoxin MVIIC 200 nmol/L, ANOVA",not significantly altered; also recorded: not significantly affected
same,greater affinity for T-type VGCCs than for L-type VGCC,T‐type VGCCs,12–13 fold
COC(=O)C1=C(C)NC(C)=C(C(=O)OC)C1c1ccccc1[N+](=O)[O-] [nifedipine],EC50,"[1]; ref Fajardo et al. 2008, read-out: EC50 for activation of recombinantly-expressed TRPA1 channels",~0.4 µM
same,EC50,TRPM3,~30 µM
ω‐conotoxin MVIIC,depolarization-induced CGRP release in the presence of inhibitor,[2],73 ± 8 % of control 40 mmol/L KCl‐evoked release
same,effect on 100 μmol/L cinnamaldehyde-induced CGRP release,[3],not significantly altered; also recorded: not significantly affected
